# No end group written: not given here.
# System: adjuvant arthritis (Freund's complete adjuvant)
# Test: Protective effect of peptide A on adjuvant arthritis in rats
# Assay type: in vivo, SD rats
# Conditions: for ankle joint swelling value: X±SD; for ankle joint swelling value / Lesion scoring ( X ± SD), joint lesion severity: n=10; for inhibition rate of ankle joint swelling: vs model group; for Lesion scoring ( X ± SD), joint lesion severity: 32nd day, left rear ankle joint histopathology, lower score = milder
# Method: SPF-level SD rats, each weighting 180 g-220 g, with male and female each in half, provided by Experimental Animal Center of Chinese Academy of Military Medical.
# Peptide A (which was prepared with the same procedure as in Embodiment 1). It was to be dissolved in physiological saline when used.
# SD rats, with male and female each in half, were randomly divided into five groups with 10 rats in each group, respectively were model group (employing physiological saline and Freund's complete adjuvant); control group (employing the same volume of physiological saline as the model group); peptide A high, medium and low dose groups (employing Freund's complete adjuvant and peptide A, wherein each group was given different doses of peptide A, respectively were 174 μg/kg·d, 87 μg/kg·d and 43.5 μg/kg·d, peptide A was dissolved in physiological saline to form peptide A solution with desired concentration). Peptide A solution in each dose was administered by subcutaneous injection, 0.1 ml of peptide A solution per 100 g body weight of rats. The control group employed the same amount of physiological saline as the peptide A solution (0.1 ml of physiological saline per 100 g body weight of rats).
# Each group rats were administered according to the following manner. These rats were normally fed every day during the administration.
# On the 1st day (including this day), except the control group, for rats of other groups (the model group and the peptide A high, medium and low dose groups), 0.5 ml of Freund's complete adjuvant was subcutaneously injected into plantar skin of right rear foot of every rat. Then, they were subcutaneously injected with 0.05 ml of Freund's complete adjuvant for one time every other day, a total of 15 times.
# From the 2nd day (including this day), the rats of peptide A high, medium and low dose groups each were administered with corresponding the dose of peptide A. Then, they were subcutaneously injected with the dose the amount of peptide A for one time every other day, a total of 15 times. At the same time, the rats of the control group and the model group were subcutaneously injected the same amount of physiological saline as that of the peptide A for the high, medium and low dose groups for one time every other day, a total of 15 times.
# Measurement for the experimental results was conducted as follows. Firstly, before administration to rats of each group, left rear ankle circumference […] of each rat was measured by a flexible rule as a base value, and then circumference of left rear ankle with inflammation of each rat was measured at the 4th, 8th, 12th, 16th, 20th, 24th, 28th, and 32nd day, respectively. Swelling value obtained by circumference after inflammation minus circumference before inflammation was used to observe changes of primary and secondary inflammation of Freund's complete adjuvant-induced rats.
# Secondly, at the 32nd day, rats of each group were killed, and their left rear foot ankle joints ware quickly taken out, fixed in 10% formalin and then embedded in paraffin after decalcification, sectioned and stained with HE. The proliferation of synovial tissue, degeneration of covering epithelial cells (synovial cells), congestion of interstitial substance, inflammatory cell infiltration, damage or fibrosis of arthrodial cartilage, and inflammatory cell infiltration or fibrosis of subcutaneous tissue around the joint, were observed. According to severity of joint lesions, the lesions were scored as “1 score (few or mild lesion)”, “2 scores (moderate or medium lesion)”, “3 scores (large or severe lesion)”, and “4 scores (very severe lesion)”. Very mild lesion was scored as “0.5”, and no lesion tissue was scored as “0”. Accumulate all scores to obtain a total score for one group, and then calculate average score ( X±SD) for each animal in each group. The lower score indicates the milder grade of the lesion. […]
# [1] = high dose 174 μg/kg·d s.c., the 4th day
# [2] = high dose 174 μg/kg·d s.c., the 8th day
# [3] = high dose 174 μg/kg·d s.c., the 12th day
# [4] = high dose 174 μg/kg·d s.c., the 16th day
# [5] = high dose 174 μg/kg·d s.c., the 20th day
# [6] = high dose 174 μg/kg·d s.c., the 24th day
# [7] = high dose 174 μg/kg·d s.c., the 28th day
# [8] = high dose 174 μg/kg·d s.c., the 32nd day
# [9] = low dose 43.5 μg/kg·d s.c., the 4th day
# [10] = low dose 43.5 μg/kg·d s.c., the 8th day
# [11] = low dose 43.5 μg/kg·d s.c., the 12th day
# [12] = low dose 43.5 μg/kg·d s.c., the 16th day
# [13] = low dose 43.5 μg/kg·d s.c., the 20th day
# [14] = low dose 43.5 μg/kg·d s.c., the 24th day
# [15] = low dose 43.5 μg/kg·d s.c., the 28th day
# [16] = low dose 43.5 μg/kg·d s.c., the 32nd day
# [17] = medium dose 87 μg/kg·d s.c., the 4th day
# [18] = medium dose 87 μg/kg·d s.c., the 8th day
# [19] = medium dose 87 μg/kg·d s.c., the 12th day
# [20] = medium dose 87 μg/kg·d s.c., the 16th day
# [21] = medium dose 87 μg/kg·d s.c., the 20th day
# [22] = medium dose 87 μg/kg·d s.c., the 24th day
# [23] = medium dose 87 μg/kg·d s.c., the 28th day
# [24] = medium dose 87 μg/kg·d s.c., the 32nd day
substance,measurement,setting,value
GQTYTSG [Peptide A],arthritis lesion (histopathology) after administration,"all dose groups, effect in descending order high, medium, low",reduced in different degrees
same,ankle joint swelling value,[1],8.5 ± 1.5 mm
same,inhibition rate of ankle joint swelling,[1],(17.5%)
same,ankle joint swelling value,[2],10.2 ± 1.7 mm
same,inhibition rate of ankle joint swelling,[2],(28.2%)
same,ankle joint swelling value,[3],10.8 ± 1.5 mm
same,inhibition rate of ankle joint swelling,[3],(31.6%)
same,ankle joint swelling value,[4],11.1 ± 1.6 mm
same,inhibition rate of ankle joint swelling,[4],(39.7%)
same,ankle joint swelling value,[5],11.4 ± 1.8 mm
same,inhibition rate of ankle joint swelling,[5],(37.4%)
same,ankle joint swelling value,[6],10.8 ± 1.7 mm
same,inhibition rate of ankle joint swelling,[6],(38.3%)
same,ankle joint swelling value,[7],10.4 ± 1.8 mm
same,inhibition rate of ankle joint swelling,[7],(37.7%)
same,ankle joint swelling value,[8],9.5 ± 1.9 mm
same,inhibition rate of ankle joint swelling,[8],(39.9%)
same,"Lesion scoring ( X ± SD), joint lesion severity",high dose group (174 μg/kg·d s.c.),3.60 ± 1.26
same,inhibition rate to the joint swelling,high dose group (174 μg/kg·d),~40%
same,joint swelling compared with rats of the model group,"high, medium and low dose groups, observation",significantly reduced joint swelling
same,skin ulcer symptom,"high, medium and low dose groups, part of model rats had skin ulcers on the 24th day",did not have skin ulcer symptom
same,ankle joint swelling value,[9],9.3 ± 1.4 mm
same,inhibition rate of ankle joint swelling,[9],(9.7%)
same,ankle joint swelling value,[10],13.5 ± 2.1 mm
same,inhibition rate of ankle joint swelling,[10],(4.9%)
same,ankle joint swelling value,[11],13.9 ± 1.6 mm
same,inhibition rate of ankle joint swelling,[11],(12.0%)
same,ankle joint swelling value,[12],14.2 ± 1.7 mm
same,inhibition rate of ankle joint swelling,[12],(22.8%)
same,ankle joint swelling value,[13],14.6 ± 2.3 mm
same,inhibition rate of ankle joint swelling,[13],(19.8%)
same,ankle joint swelling value,[14],14.2 ± 1.4 mm
same,inhibition rate of ankle joint swelling,[14],(18.8%)
same,ankle joint swelling value,[15],14.0 ± 1.8 mm
same,inhibition rate of ankle joint swelling,[15],(16.2%)
same,ankle joint swelling value,[16],13.8 ± 1.5 mm
same,inhibition rate of ankle joint swelling,[16],(12.6%)
same,"Lesion scoring ( X ± SD), joint lesion severity",low dose group (43.5 μg/kg·d s.c.),4.10 ± 0.99
same,ankle joint swelling value,[17],8.9 ± 1.6 mm
same,inhibition rate of ankle joint swelling,[17],(13.6%)
same,ankle joint swelling value,[18],11.9 ± 1.8 mm
same,inhibition rate of ankle joint swelling,[18],(16.2%)
same,ankle joint swelling value,[19],12.1 ± 2.3 mm
same,inhibition rate of ankle joint swelling,[19],(23.4%)
same,ankle joint swelling value,[20],12.9 ± 1.8 mm
same,inhibition rate of ankle joint swelling,[20],(29.9%)
same,ankle joint swelling value,[21],13.2 ± 1.4 mm
same,inhibition rate of ankle joint swelling,[21],(27.5%)
same,ankle joint swelling value,[22],13.0 ± 1.8 mm
same,inhibition rate of ankle joint swelling,[22],(25.7%)
same,ankle joint swelling value,[23],12.8 ± 1.6 mm
same,inhibition rate of ankle joint swelling,[23],(23.4%)
same,ankle joint swelling value,[24],12.5 ± 1.8 mm
same,inhibition rate of ankle joint swelling,[24],(20.9%)
same,"Lesion scoring ( X ± SD), joint lesion severity",medium dose group (87 μg/kg·d s.c.),4.00 ± 0.67

# Source: patent US20140235545A1, “The use of HCV immunogenic peptide or a derivative thereof in the prevention or treatment of arthritis” (priority 2011, published 2014)
